Measured values taken from PMC9143880, “Improving Antimicrobial Activity and Physico-Chemical Properties by Isosteric Replacement of 2-Aminothiazole with 2-Aminooxazole” (Pharmaceuticals, 2022).
Converted amounts (≈) assume the structure as drawn. Like-named read-outs stand apart in the source and are kept apart here.

Legend:
[1] = RP-UHPLC lipophilicity parameter log k’w; format: physicochemical; settings: for log k’w: RP-UHPLC, acetonitrile/water, log k extrapolated to 0% acetonitrile; for logkw: experimental lipophilicity parameter
Description: Lipophilicity and water solubility of the drug candidates are important parameters as they are often directly related to their ADME properties in the organism. Lipophilicity is usually expressed as the logarithm of the partition coefficient in n-octanol/water (log P). Due to its laborious determination, especially in the HTS screening, other experimental methods such as RP-HPLC log k’w or purely computational approaches such as Clog P were proposed and have been established as reasonable estimators of true lipophilicity. To investigate the changes in lipophilicity upon introduction of oxazole in the title compounds, we determined the log k’w of all derivatives and compared respective values among the pairs.
The log k of the synthesized compounds was measured using the same instrument (single measurement per concentration), software, and column as was used in the purity evaluation. Working solutions were diluted as described above for purity determination. The log k parameter was calculated after the UHPLC measurements using isocratic mode with mobile phase acetonitrile (B)/water (A) in a set of concentrations of 40, 45, 50% and 20, 30, 40% B for subtype I and subtype II, respectively.

[2] = test system: Mycobacterium tuberculosis H37Ra ITM-M006710 (ATCC 9431); test: Antimycobacterial MIC, microdilution broth / Alamar Blue (resazurin); format: cell-based; settings: Mycobacterium tuberculosis, 120 h, Middlebrook 7H9, resazurin after 120 h; read-out: Mtb H37Ra MIC
[3] = test system: M. smegmatis DSM 43465 (ATCC 607); test: Antimycobacterial MIC, microdilution broth / resazurin; format: cell-based; settings: Mycolicibacterium smegmatis, read-out: MIC M. smegmatis
[4] = test system: M. aurum DSM 43999 (ATCC 23366); test: as above; format: cell-based; settings: Mycolicibacterium aurum, read-out: MIC M. aurum
[5] = test system: M. avium DSM 44156 (ATCC 25291); test: as above; format: cell-based, Mycobacterium avium; settings: Mycobacterium avium, read-out: MIC M. avium
[6] = test system: M. kansasii DSM 44162 (ATCC 12478); test: as above; format: cell-based; settings: Mycobacterium kansasii; resazurin after 96 h; read-out: MIC M. kansasii
[7] = test system: Staphylococcus aureus subsp. aureus CCM 4223 (ATCC 29213); test: Antibacterial microdilution broth (EUCAST); format: cell-based; settings: Staphylococcus aureus; 24h incubation; read-out: MIC SA
[8] = test system: Staphylococcus aureus subsp. aureus (MRSA) CCM 4750 (ATCC 43300); test: Antibacterial microdilution broth (EUCAST); format: cell-based; settings: Staphylococcus aureus; 24h incubation; read-out: MIC MRSA
[9] = test system: Staphylococcus epidermidis CCM 4418 (ATCC 12228); test: Antibacterial microdilution broth (EUCAST); format: cell-based; settings: Staphylococcus epidermidis; 24h incubation; read-out: MIC SE
[10] = test system: Enterococcus faecalis CCM 4224 (ATCC 29212); test: Antibacterial microdilution broth (EUCAST); format: cell-based; settings: Enterococcus faecalis; 24h incubation; read-out: MIC EF
[11] = test system: Escherichia coli CCM 3954 (ATCC 25922); test: Antibacterial microdilution broth (EUCAST); format: cell-based; settings: Escherichia coli; 24h incubation; read-out: MIC EC
[12] = test system: Acinetobacter baumannii DSM 30007 (ATCC 19606); test: Antibacterial microdilution broth (EUCAST); format: cell-based; settings: Acinetobacter baumannii; 24h incubation; read-out: MIC AB
[13] = test system: Pseudomonas aeruginosa CCM 3955 (ATCC 27853); test: Antibacterial microdilution broth (EUCAST); format: cell-based; settings: Pseudomonas aeruginosa; 72h incubation; read-out: MIC PA
[14] = test system: Candida albicans CCM 8320 (ATCC 24433); test: Antifungal microdilution broth (EUCAST); settings: Candida albicans, 24 h, read-out: MIC CA
[15] = test system: Candida krusei CCM 8271 (ATCC 6258); test: Antifungal microdilution broth (EUCAST); settings: Pichia kudriavzevii, 24 h, read-out: MIC CK
[16] = test system: Candida parapsilosis CCM 8260 (ATCC 22019); test: Antifungal microdilution broth (EUCAST); settings: Lodderomyces parapsilosis, 24 h, read-out: MIC CP
[17] = test system: Candida tropicalis CCM 8264 (ATCC 750); test: Antifungal microdilution broth (EUCAST); settings: Candida tropicalis, 24 h, read-out: MIC CT
[18] = test system: Aspergillus fumigatus ATCC 204305; test: Antifungal microdilution broth (EUCAST); settings: Aspergillus fumigatus, ATCC204305, 24 h, read-out: MIC AF
[19] = test system: Aspergillus flavus CCM 8363; test: Antifungal microdilution broth (EUCAST); settings: Aspergillus flavus, CCM8363, 24 h, read-out: MIC AFla
[20] = test system: Lichtheimia corymbifera CCM 8077; test: Antifungal microdilution broth (EUCAST); settings: Lichtheimia corymbifera, CCM8077, 24 h, read-out: MIC LC
[21] = test system: Trichophyton interdigitale CCM 8377 (ATCC 9533); test: Antifungal microdilution broth (EUCAST); settings: Trichophyton interdigitale, 72 h, read-out: MIC TI
HepG2 cells = test: HepG2 cytotoxicity screening (CellTiter 96); format: cell-based, human; settings: Homo sapiens, HepG2, 24 h, 24 h incubation, CellTiter 96; * above highest tested concentration; ** limited by insolubility in medium

## O=C(Nc1ncco1)c1cnccn1 [Compound 8b]
[1]
  log k’w: 0.154
  logkw: 0.154
[2]
  MIC: 31.2 µg/mL (≈ 164 µM)
[3]; resazurin after 48 h
  MIC: ≥ 500 µg/mL
[4]; 72 h
  MIC: 31.2 µg/mL (≈ 164 µM)
[5]; resazurin after 96 h
  MIC: 62.5 µg/mL (≈ 329 µM)
[6]
  MIC: 15.6 µg/mL (≈ 82.2 µM)
[7]
  MIC: > 500 µM
[8]
  MIC: > 500 µM
[9]
  MIC: > 500 µM
[10]
  MIC: > 500 µM
[11]
  MIC: > 500 µM
[12]
  MIC: > 500 µM
[13]
  MIC: > 500 µM
other
  melting point: 160 to 164 °C
[14]
  MIC: > 500 µM
[15]
  MIC: > 500 µM
[16]
  MIC: > 500 µM
[17]
  MIC: > 500 µM
[18]
  MIC: > 500 µM
[19]
  MIC: > 500 µM
[20]
  MIC: 500 µM (≈ 95.1 µg/mL)
[21]
  MIC: 500 µM (≈ 95.1 µg/mL)

## O=C(Nc1nccs1)c1cnc(Cl)cn1 [Compound 9a]
[1]
  log k’w: 1.941
  logkw: 1.941
[2]
  MIC: 31.2 µg/mL (≈ 130 µM)
[3]; resazurin after 48 h
  MIC: ≥ 500 µg/mL
[4]; resazurin after 72 h
  MIC: ≥ 500 µg/mL
[5]; resazurin after 96 h
  MIC: 15.6 µg/mL (≈ 64.9 µM)
[6]
  MIC: < 3.91 µg/mL
[7]
  MIC: > 500 µM
[8]
  MIC: > 500 µM
[9]
  MIC: > 500 µM
[10]
  MIC: > 500 µM
[11]
  MIC: > 500 µM
[12]
  MIC: > 500 µM
[13]
  MIC: > 500 µM
other
  melting point: 197 to 200 °C
[14]
  MIC: > 500 µM
[15]
  MIC: > 500 µM
[16]
  MIC: > 500 µM
[17]
  MIC: > 500 µM
[18]
  MIC: 500 µM (≈ 120 µg/mL)
[19]
  MIC: 500 µM (≈ 120 µg/mL)
[20]
  MIC: > 500 µM
[21]
  MIC: > 500 µM

## O=C(Nc1ncco1)c1cnc(Cl)cn1 [Compound 9b]
[1]
  log k’w: 0.958
  logkw: 0.958
[2]
  MIC: 31.2 µg/mL (≈ 139 µM)
[3]; resazurin after 48 h
  MIC: 62.5 µg/mL (≈ 278 µM)
[4]; resazurin after 72 h
  MIC: 15.6 µg/mL (≈ 69.6 µM)
[5]; 96 h
  MIC: 31.2 µg/mL (≈ 139 µM)
[6]
  MIC: < 3.91 µg/mL
[7]
  MIC: > 500 µM
[8]
  MIC: > 500 µM
[9]
  MIC: > 500 µM
[10]
  MIC: > 500 µM
[11]
  MIC: > 500 µM
[12]
  MIC: > 500 µM
[13]
  MIC: > 500 µM
other
  melting point: 160 to 164 °C
[14]
  MIC: 250 µM (≈ 56.2 µg/mL)
[15]
  MIC: 250 µM (≈ 56.2 µg/mL)
[16]
  MIC: 500 µM (≈ 112 µg/mL)
[17]
  MIC: > 500 µM
[18]
  MIC: 500 µM (≈ 112 µg/mL)
[19]
  MIC: > 500 µM
[20]
  MIC: 500 µM (≈ 112 µg/mL)
[21]
  MIC: 62.5 µM (≈ 14 µg/mL)

## O=C(Nc1ncco1)c1cnc2ccccc2n1 [Compound 10b]
[1]
  log k’w: 1.493
  logkw: 1.493
HepG2 cells
  IC50: > 1000 µM
[2]
  MIC: 15.6 µg/mL (≈ 65 µM)
[3]; resazurin after 48 h
  MIC: 62.5 µg/mL (≈ 260 µM)
[4]; 72 h
  MIC: 15.6 µg/mL (≈ 65 µM)
[7]
  MIC: 500 µM (≈ 120 µg/mL)
[8]
  MIC: > 500 µM
[9]
  MIC: 500 µM (≈ 120 µg/mL)
[10]
  MIC: > 500 µM
[11]
  MIC: > 500 µM
[12]
  MIC: > 500 µM
[13]
  MIC: > 500 µM
other
  melting point: 163 to 165 °C
[14]
  MIC: 500 µM (≈ 120 µg/mL)
[15]
  MIC: 250 µM (≈ 60.1 µg/mL)
[16]
  MIC: 500 µM (≈ 120 µg/mL)
[17]
  MIC: 500 µM (≈ 120 µg/mL)
[18]
  MIC: 500 µM (≈ 120 µg/mL)
[19]
  MIC: > 500 µM
[20]
  MIC: 500 µM (≈ 120 µg/mL)
[21]
  MIC: 250 µM (≈ 60.1 µg/mL)

## O=C(Nc1nc(-c2ccccc2)co1)c1ccncc1 [Compound 13b]
[1]
  log k’w: 1.163
  logkw: 1.163
HepG2 cells
  IC50: 879 µM
[2]
  MIC: 31.2 µg/mL (≈ 118 µM)
[3]; resazurin after 48 h
  MIC: 125 µg/mL (≈ 471 µM)
[4]; 72 h
  MIC: 31.2 µg/mL (≈ 118 µM)
[7]
  MIC: 500 µM (≈ 133 µg/mL)
[8]
  MIC: > 500 µM
[9]
  MIC: 125 µM (≈ 33.2 µg/mL)
[10]
  MIC: > 500 µM
[11]
  MIC: > 500 µM
[12]
  MIC: > 500 µM
[13]
  MIC: > 500 µM
other
  melting point: 168 to 171 °C
[14]
  MIC: > 500 µM
[15]
  MIC: > 500 µM
[16]
  MIC: > 500 µM
[17]
  MIC: > 500 µM
[18]
  MIC: > 500 µM
[19]
  MIC: > 500 µM
[20]
  MIC: > 500 µM
[21]
  MIC: 500 µM (≈ 133 µg/mL)

## Cc1cc(C(=O)Nc2nc(-c3ccccc3)cs2)cc(Cl)n1 [Compound 16a]
[1]
  log k’w: 3.314
  logkw: 3.314
[2]
  MIC: 7.81 µg/mL (≈ 23.7 µM)
[3]; 48 h
  MIC: 7.81 µg/mL (≈ 23.7 µM)
[4]; resazurin after 72 h
  MIC: 15.6 µg/mL (≈ 47.4 µM)
[5]; 96 h
  MIC: 7.81 µg/mL (≈ 23.7 µM)
[6]
  MIC: 3.91 µg/mL (≈ 11.9 µM)
[7]
  MIC: > 500 µM
[8]
  MIC: > 500 µM
[9]
  MIC: > 500 µM
[10]
  MIC: > 500 µM
[11]
  MIC: > 500 µM
[12]
  MIC: > 500 µM
[13]
  MIC: > 500 µM
other
  melting point: 92 to 96 °C
[14]
  MIC: > 125 µM
[15]
  MIC: > 125 µM
[16]
  MIC: > 125 µM
[17]
  MIC: > 125 µM
[18]
  MIC: > 125 µM
[19]
  MIC: > 125 µM
[20]
  MIC: > 125 µM
[21]
  MIC: > 125 µM
